Measured values taken from the supplement of paper PMC10307832.

Columns and labels:
Assay in all cases: relative viability (nuclei count vs DMSO), 5 days (fraction); higher = more cells survive
Etoposide + Lapatinib = compound: COc1cc([C@@H]2c3cc4c(cc3[C@@H](O[C@@H]3O[C@@H]5CO[C@@H](C)O[C@H]5[C@H](O)[C@H]3O)[C@H]3COC(=O)[C@H]23)OCO4)cc(OC)c1O [Etoposide] + CS(=O)(=O)CCNCc1ccc(-c2ccc3ncnc(Nc4ccc(OCc5cccc(F)c5)c(Cl)c4)c3c2)o1 [Lapatinib] (partner 2 µM)
Procedure, shortened: (§1)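 Relative viability is defined as nuclei in treated wells over nuclei in vehicle wells. Duplicate plates were run and medians reported. Lung cancer cell lines in 1536-well plates were dosed by pin tool one day after seeding, with one drug or with a fixed anchor-drug dose plus five library-drug doses (not always all listed) in √10 steps, and nuclei were counted after 5 days.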

Bleomycin + OSI-027 = compound: CC1=C(N=C(N=C1N)[C@H](CC(=O)N)NC[C@@H](C(=O)N)N)C(=O)N[C@@H]([C@H](C2=CN=CN2)OC3C(C(C(C(O3)CO)O)O)OC4C(C(C(C(O4)CO)O)OC(=O)N)O)C(=O)N[C@H](C)[C@H]([C@H](C)C(=O)N[C@@H]([C@@H](C)O)C(=O)NCCC5=NC(=CS5)C6=NC(=CS6)C(=O)NCCC[S+](C)C)O [Bleomycin] + COc1cccc2cc(-c3nc([C@H]4CC[C@H](C(=O)O)CC4)n4ncnc(N)c34)[nH]c12 [OSI-027] (partner 0.5 µM); conditions: main component drawn
Procedure, shortened: as §1

Etoposide + Luminespib = compound: COc1cc([C@@H]2c3cc4c(cc3[C@@H](O[C@@H]3O[C@@H]5CO[C@@H](C)O[C@H]5[C@H](O)[C@H]3O)[C@H]3COC(=O)[C@H]23)OCO4)cc(OC)c1O [Etoposide] + CCNC(=O)c1noc(-c2cc(C(C)C)c(O)cc2O)c1-c1ccc(CN2CCOCC2)cc1 [Luminespib] (partner 0.01 µM)
Procedure, shortened: as §1

Etoposide + AZD7762 = compound: COc1cc([C@@H]2c3cc4c(cc3[C@@H](O[C@@H]3O[C@@H]5CO[C@@H](C)O[C@H]5[C@H](O)[C@H]3O)[C@H]3COC(=O)[C@H]23)OCO4)cc(OC)c1O [Etoposide] + NC(=O)Nc1cc(-c2cccc(F)c2)sc1C(=O)N[C@H]1CCCNC1 [AZD7762] (partner 0.2 µM)
Procedure, shortened: as §1

| Cell Line | relative viability (Etoposide + Lapatinib; first compound 0.01 µM) | relative viability (Etoposide + Lapatinib; first compound 0.03162 µM) | relative viability (Etoposide + Lapatinib; first compound 0.1 µM) | relative viability (Etoposide + Lapatinib; first compound 0.3162 µM) | relative viability (Etoposide + Lapatinib; first compound 1 µM) | relative viability (Bleomycin + OSI-027; first compound 0.01 µM) | relative viability (Bleomycin + OSI-027; first compound 0.03162 µM) | relative viability (Bleomycin + OSI-027; first compound 0.1 µM) | relative viability (Bleomycin + OSI-027; first compound 0.3162 µM) | relative viability (Bleomycin + OSI-027; first compound 1 µM) | relative viability (Etoposide + Luminespib; first compound 0.01 µM) | relative viability (Etoposide + Luminespib; first compound 0.03162 µM) | relative viability (Etoposide + Luminespib; first compound 0.1 µM) | relative viability (Etoposide + Luminespib; first compound 0.3162 µM) | relative viability (Etoposide + Luminespib; first compound 1 µM) | relative viability (Etoposide + AZD7762; first compound 0.01 µM) | relative viability (Etoposide + AZD7762; first compound 0.03162 µM) | relative viability (Etoposide + AZD7762; first compound 0.1 µM) | relative viability (Etoposide + AZD7762; first compound 0.3162 µM) | relative viability (Etoposide + AZD7762; first compound 1 µM) |
| --- | --- | --- | --- | --- | --- | --- | --- | --- | --- | --- | --- | --- | --- | --- | --- | --- | --- | --- | --- | --- |
| SW 1573 | 1.03 | 1.12 | 0.576 | 0.696 | 0.267 | 0.566 | 0.407 | 0.382 | 0.258 | 0.169 | 0.131 | 0.164 | 0.355 | 0.152 | 0.0996 | – | – | – | – | – |
| Calu-6 | 1.04 | 0.903 | 1.13 | 0.435 | 0.284 | – | – | – | – | – | – | – | – | – | – | – | – | – | – | – |
| SK-MES-1 | 0.461 | 0.538 | 0.368 | 0.426 | 0.272 | 0.506 | 0.588 | 0.57 | 0.262 | 0.16 | 0.695 | 0.64 | 0.733 | 0.357 | 0.231 | – | – | – | – | – |
| NCI-H1650 | 0.696 | 0.781 | 0.479 | 0.217 | 0.144 | 0.468 | 0.332 | 0.227 | 0.171 | 0.151 | 0.204 | 0.175 | 0.202 | 0.209 | 0.211 | – | – | – | – | – |
| HCC-366 | 0.978 | 0.882 | 0.382 | 0.0593 | 0.0394 | 0.675 | 0.643 | 0.471 | 0.122 | 0.119 | – | – | – | – | – | 0.227 | 0.251 | 0.187 | 0.091 | 0.0373 |
| HCC-78 | 1.03 | 0.836 | 0.206 | 0.134 | 0.202 | 0.38 | 0.348 | 0.309 | 0.311 | 0.29 | – | – | – | – | – | 0.808 | 0.771 | 0.392 | 0.658 | 0.409 |
| EBC-1 | 0.2 | 0.245 | – | 0.214 | 0.196 | – | – | – | – | – | – | – | – | – | – | – | – | – | – | – |
| NCI-H1623 | – | – | – | – | – | 0.406 | 0.432 | 0.464 | 0.363 | 0.322 | 0.541 | 0.537 | 0.347 | 0.405 | 0.28 | – | – | – | – | – |
| NCI-H2342 | – | – | – | – | – | 0.676 | 0.634 | 0.598 | 0.507 | 0.511 | 0.622 | 0.728 | 0.425 | 0.352 | 0.29 | 0.573 | 0.441 | 0.337 | 0.433 | 0.4 |
| SW 900 | – | – | – | – | – | 0.428 | 0.336 | 0.425 | 0.15 | 0.134 | 0.185 | 0.21 | 0.168 | 0.175 | 0.153 | 0.561 | 0.7 | 0.379 | 0.539 | 0.293 |
| NCI-H1563 | 0.935 | 0.868 | 0.817 | 0.646 | 0.526 | 0.67 | 0.806 | 0.657 | 0.577 | 0.581 | 0.502 | 0.463 | 0.479 | 0.408 | 0.396 | – | – | – | – | – |
| NCI-H1299 | 0.952 | 0.983 | 1.03 | 0.776 | 0.817 | – | – | – | – | – | – | – | – | – | – | – | – | – | – | – |
| NCI-H2228 | 0.84 | 1.05 | 0.846 | 0.703 | 0.138 | 0.473 | 0.467 | 0.534 | 0.264 | 0.164 | 0.159 | 0.141 | 0.154 | 0.117 | 0.147 | – | – | – | – | – |
| NCI-H661 | 0.44 | 0.416 | 0.314 | 0.283 | 0.235 | 0.632 | 0.683 | 0.4 | 0.23 | 0.235 | 0.956 | 0.901 | 0.898 | 0.553 | 0.435 | – | – | – | – | – |
| COR-L 105 | 0.271 | 0.393 | 0.26 | 0.343 | 0.356 | 0.591 | 0.567 | 0.639 | 0.339 | 0.377 | 0.96 | 0.765 | 0.758 | 0.625 | 0.776 | – | – | – | – | – |
| NCI-H522 | – | – | – | – | – | 0.662 | 0.619 | 0.593 | 0.419 | 0.432 | 1.03 | 0.988 | 0.866 | 0.907 | 0.601 | 0.891 | 0.97 | 0.69 | 0.761 | 0.824 |
| NCI-H520 | 0.839 | 0.829 | 0.563 | 0.72 | 0.437 | 0.272 | 0.299 | 0.21 | 0.208 | 0.198 | 0.204 | 0.198 | – | 0.218 | 0.219 | – | – | – | – | – |
| A549 | 0.957 | 0.811 | 0.537 | 0.244 | 0.111 | – | – | – | – | – | – | – | – | – | – | – | – | – | – | – |
| NCI-H2009 | 0.885 | 1.08 | 0.856 | 0.408 | 0.247 | 0.606 | 0.609 | 0.637 | 0.501 | 0.41 | 1.03 | 0.961 | 1 | 0.644 | 0.476 | – | – | – | – | – |
| NCI-H1648 | – | – | – | – | – | 0.274 | – | 0.257 | 0.246 | 0.274 | – | – | – | – | – | – | 0.762 | 0.991 | 0.722 | 0.451 |
| IA-LM | 0.704 | 0.614 | 0.78 | 0.666 | 0.301 | – | – | – | – | – | – | – | – | – | – | – | – | – | – | – |
| COR-L23 | 0.854 | 1.06 | 0.92 | 0.588 | 0.14 | 0.566 | 0.696 | 0.415 | 0.139 | 0.122 | 0.573 | 0.802 | 0.536 | 0.214 | 0.153 | – | – | – | – | – |
| ChaGo-K-1 | – | – | – | – | – | 0.46 | 0.536 | 0.5 | 0.302 | 0.179 | 0.467 | 0.473 | 0.38 | 0.211 | 0.229 | 0.859 | 0.863 | 0.863 | 0.69 | 0.302 |
| NCI-H441 | – | – | – | – | – | 0.404 | 0.735 | 0.534 | 0.383 | 0.283 | 0.307 | 0.28 | 0.331 | 0.259 | 0.256 | 1.31 | 0.966 | 1.1 | 0.512 | 0.4 |
